Measured values published in ChEMBL document CHEMBL3507680, “University of Dundee, Gates Library screen for HepG2 cell viability”.

Test: Human HepG2 cell viability assay in 384 well format
Type: toxicity, cell-based
Parameters: dose 125 nL, time 70.5 hour; concentration not given beside the values
Conditions: HepG2 cells, read-out: Inhibition

Row | Compound | cytotoxicity at 70.5 h [%]
1 | CC1(C)CC(C(=O)N2CCC3(CCC(=O)N(C4CC4)C3)CC2)CCO1 (stereo not drawn) | -4.55
2 | O=C(NCCc1csc(-c2cnccn2)n1)c1cnn[nH]1 | 21.3
3 | O=C(CCN1CCOC(C(F)(F)F)C1)NCc1cccc(Cl)c1 (stereo not drawn) | -5.6
4 | O=C(O)[C@@H]1CN(C(=O)CSCC2CC2)C[C@H]1c1ccccn1 | -1.99
5 | CCCc1ccc(CN2CCC3(CCC(=O)N(CCO)C3)CC2)o1 | -3.93
6 | FC(F)(F)c1cccc(OC2CCN(Cc3ncc[nH]3)CC2)c1 | -0.255
7 | O=C1NCCCC12CCN(Cc1ccc(SC3CCCCC3)o1)C2 (stereo not drawn) | 5.14
8 | CC(NC(=O)Cc1cc2c(cc1Cl)OCCO2)c1ccncn1 (stereo not drawn) | -2.12
9 | CCc1nccn1CC(=O)N1C[C@H]2CC[C@@H]1CN(C(=O)N(C)C)C2 | -3.56
10 | Cn1cc(Cl)c(CN2CCn3nc(C(=O)N4CCCC4)cc3C2)n1 | -4.39
11 | O=C(C1CNCCO1)N1CCCC(c2ccccc2)(c2ccccc2)C1 (stereo not drawn) | -0.462
12 | N#Cc1cccnc1N1CCCC(CO)(Cc2ccccc2F)C1 (stereo not drawn) | -4.89
13 | CCCC(C)C(=O)N1CCC(c2cc(N3CCOCC3)nc(C)n2)CC1 (stereo not drawn) | -1.55
14 | COc1cccc(-c2cc(NCCO)nc3[nH]ccc23)n1 | -10.9
15 | CCS(=O)(=O)CCNC1CCN(c2nc3ccc(Cl)cc3s2)CC1 | 4.49
16 | CC(O)C(=O)N1CCC(c2nccn2Cc2cscn2)CC1 (stereo not drawn) | 23.7
17 | CN1CCC2(CC1)CCN(C(=O)c1onc3ccccc13)C2 | -6.04
18 | CC(CN1CCCCCC1)NCc1nncn1C1CCCCC1 (stereo not drawn) | -6.55
19 | COCCCC1CCCCN1C(=O)c1ccc(SCCO)cc1 (stereo not drawn) | 6.41
20 | Cc1nnsc1CN(C)C(=O)c1ccc(CSc2nnc[nH]2)o1 | -10.2
21 | COc1cccc(C(=O)N2C[C@@H](C(=O)O)[C@H](c3ccccc3C)C2)c1 | 6.74
22 | Cc1cc(N2CCCC(c3[nH]ncc3Cc3ccccc3)C2)nc(N)n1 (stereo not drawn) | 11.1
23 | OC1CCCOC12CCN(c1ncccn1)CC2 (stereo not drawn) | 15.7

Row | Compound | cytotoxicity at 70.5 h [%]
24 | Cc1nc(N2CCC3(CCCN(CCO)C3=O)C2)c2sccc2n1 (stereo not drawn) | -7.31
25 | COCc1nc(C2CC2)nn1-c1ccccc1Cl | -2.98
26 | COc1ccccc1C1CNC(=O)c2nc(-c3cn(C)nc3C)[nH]c2C1 (stereo not drawn) | 8.73
27 | CN(C)CC1(O)CCCN(C(=O)c2ccccc2-n2cncn2)C1 (stereo not drawn) | -3.77
28 | CC(=O)NCCNC(=O)C1(N2CCCCC2)Cc2ccccc2C1 | -7.44
29 | Cc1ccc(C(=O)O)cc1-c1cccc2c1CCNC2 | -21
30 | Cc1ccc2[nH]c(=O)cc(C(=O)N[C@@H]3C[C@@H](CO)N(C)C3)c2c1 | -14.7
31 | COCc1nc(C2CC2)nn1-c1cccc(F)c1 | -7.42
32 | CC(C)c1cc(C2CCN(C(=O)Cn3cnc4ccccc43)CC2)[nH]n1 | 4.36
33 | COCc1cc(N2CCOC(c3ccc(Cl)c(Cl)c3)C2)ncn1 (stereo not drawn) | -12.1
34 | CCc1ccc(C2CC(=O)Nc3cc(OC)c(NS(C)(=O)=O)cc32)o1 (stereo not drawn) | -3.63
35 | COc1ccc(CN(Cc2cnn(C)c2)CC(C)C)cn1 | -6.19
36 | O=C(c1cc2ccccc2[nH]c1=O)N1CCC2(CCCNC2)C1 (stereo not drawn) | -4.47
37 | Cc1cccc(-n2nc(CC(C)C)nc2CS(C)(=O)=O)c1 | -2.84
38 | CCC(C)N(Cc1c[nH]c(C)n1)Cc1ccccc1Cl (stereo not drawn) | -8.23
39 | CSCCC(=O)N1C[C@@H](C)[C@](O)(C(C)C)C1 | -9.47
40 | CCC[C@H]1CN(C2CCOCC2)C[C@@H]1NC(=O)CCn1ccnc1C | 3.94
41 | Cc1cnc(CNC(=O)CCCn2cnc3ccccc3c2=O)cn1 | 6.51
42 | CCN(C)S(=O)(=O)NC(C)c1cnc(N(C)C2CCCCC2)nc1C (stereo not drawn) | -4.92
43 | Cc1ncc(C(=O)N2CCC(N3CCc4ccccc4C3)CC2)c(O)n1 | 2.23
44 | Cn1nc(CO)c2c1CCN(c1ncnc3c1CCNCC3)C2 | -6.13
45 | O=C1[C@@H]2CN(c3ncccc3Cl)C[C@]2(C(=O)O)CN1CC1CC1 | -7.05
46 | Cn1cc(CN2CCC(CCC(=O)Nc3ccccc3Cl)CC2)cn1 | 4.76

Row | Compound | cytotoxicity at 70.5 h [%]
47 | O=C(Cc1ccc(F)cc1Cl)N1CC[C@H](CO)[C@@H](O)C1 | 9.17
48 | COC[C@@]12CC[C@@H](N3CCOCC3)C[C@H]1CCN(c1ncccc1C)C2 | -0.155
49 | CCNc1ccnc(NC2CCN(C(=O)c3ccc(C)cc3)CC2)n1 | -13.3
50 | Cc1cc(C)cc(N2CCN(Cc3cccnc3)CC2=O)c1 | -7.86
51 | Cc1ccsc1-c1cc(C(=O)O)cc(S(=O)(=O)NCc2ccccn2)c1 | -9.5
52 | CSc1cccc(CN(C)C(=O)Nc2nc(C)n(C)n2)c1 | -3.93
53 | CCn1cc(CNC2CCN(c3cccc(C)c3C)CC2)cn1 | -6.01
54 | CNc1nc(C)c(C(=O)N2C[C@H]3CC[C@@H]2CN(c2cnccn2)C3)s1 | -6.37
55 | CCc1c(C)nc(C)nc1N1C[C@@H](CN(CC)CCO)[C@@H](CO)C1 | 10.3
56 | Cc1nc(-c2cccc(N3CCC(NC4CCOCC4)CC3)c2)cs1 | -3.92
57 | c1ccc(Cn2cc(CNc3ncnc4c3CCNCC4)cn2)cc1 | -15
58 | CCCC1(NC(=O)C(c2ccc(F)cc2)N(C)C)CC1 (stereo not drawn) | 10.6
59 | Cc1c(NCc2cccnc2)cccc1C(=O)N1CCC(N(C)C)C1 (stereo not drawn) | -5.39
60 | Cc1cc(C(F)(F)F)cc(N2C[C@@H](CN3CCOCC3)[C@@H](CO)C2)n1 | -16.2
61 | COc1ccccc1CC(=O)N1CCC(OCc2cccnc2)CC1 | -13.8
62 | O=S1(=O)COCCN1Cc1ccc(F)c(F)c1 | -7.08
63 | CCc1oc(C(=O)NCCNS(C)(=O)=O)cc1CN1CCCC1 | 11.7
64 | CC(=O)N[C@@H](C)C(=O)NCc1cccnc1Oc1ccccc1F | -11.6
65 | CCC[C@@H]1CN(Cc2ccccc2C#N)C[C@H]1NC(C)=O | -1.98
66 | CN(Cc1cccc(-n2cccn2)c1)C(=O)c1ccnc(N)c1 | 3.21
67 | N#Cc1nccnc1N1CCC(C(O)c2cccs2)CC1 (stereo not drawn) | 10.4
68 | Cc1ccc2c(c1)SCC(=O)N2CC(=O)N1CCCC1c1cc(C)no1 (stereo not drawn) | 12.8
69 | CN(c1ccc(C(=O)NCCCN2CCCC2)c(Cl)c1)S(C)(=O)=O | 17.4

Row | Compound | cytotoxicity at 70.5 h [%]
70 | O=C1CCc2cc(S(=O)(=O)NCc3cc4n(n3)CCCNC4)ccc2N1 | -12.2
71 | Cc1nc(N2CCN(C(=O)c3ccccc3)CC2)cc(-n2ccnc2)n1 | 10.7
72 | COc1ccc(C)cc1-n1cnnc1C1CCOCC1 | -2.32
73 | O=c1[nH]c(NC2CCCC2)nc2nccc(-c3ccsc3)c12 | -4.5
74 | Cc1nc2c(c(NCCNC(=O)C(C)C)n1)Cc1ccccc1OC2 | -6.01
75 | CC(C)Nc1cc(N2CCC(n3cc(C4CCCC4)nn3)CC2)ncn1 | -8.81
76 | Cc1cc(C)n(-c2ccc(NCCNS(=O)(=O)c3ccccc3)nn2)n1 | -5.4
77 | CCCOC1CCCN(C(=O)c2cnc(-c3csc(C)n3)nc2O)C1 (stereo not drawn) | -6.67
78 | CN(C(=O)c1ccc(C2CCCO2)s1)C1CCS(=O)(=O)CC1 (stereo not drawn) | 2.73
79 | COc1ccc(-c2ccccc2CCN)c(OC)c1OC | 6.2
80 | CCc1ccccc1OCCCN(C)C(=O)C1CCCN1C(N)=O (stereo not drawn) | -8.96
81 | CN(C)C(=O)C1(Oc2ccc(Cl)cc2)CCNCC1 | -3.42
82 | O=C(Cc1n[nH]c(-c2cncc(Br)c2)n1)NCc1ccncc1 | -9.88
83 | CSc1ccccc1C(=O)Nc1ccc(OC2CCN(C)CC2)cc1 | 17.4
84 | CCC(NC(=O)C1CCN(S(C)(=O)=O)CC1)c1ccc(C)cc1C (stereo not drawn) | -4.73
85 | CCCC1(NC(=O)C(c2ccccc2C)N(C)C)CC1 (stereo not drawn) | -5.65
86 | C/C=C(\C)CN1C[C@H](NC(=O)c2cnc(O)cn2)C[C@H]1C(=O)NCC | -9.9
87 | O=C(NCCc1nccs1)c1cn(CCN2CCNCC2)nn1 | -2.39
88 | CC(Oc1ccc(F)cc1F)C(=O)N1CCC2(CCCO2)CC1 (stereo not drawn) | 27
89 | CCN(Cc1ccncc1)C(=O)c1cn(CCCc2ccccc2)nn1 | -12.5
90 | Cc1ccc(-c2ccc(Cl)nn2)cc1S(N)(=O)=O | -7.63
91 | CCC(C(=O)NCc1cccnc1)N(c1cccc(C)c1)S(C)(=O)=O (stereo not drawn) | 6.87
92 | CC(C)Cn1cncc1-c1nc2c([nH]1)CC(C)(C)CNC2=O | 4.26

Row | Compound | cytotoxicity at 70.5 h [%]
93 | CCc1ccccc1OCCN(C)C(=O)CN1CCCC1 | -6.67
94 | CCNC(=O)C(C)Oc1ccc(N(C)S(C)(=O)=O)cc1 (stereo not drawn) | -5.5
95 | Cn1ccc2cc(C(=O)N3CCOCC3)ccc21 | -9.22
96 | COc1ccc(NC(=O)c2cc3c([nH]c2=O)CCCC3=O)c(OC)c1 | -10.9
97 | Cc1cc(=O)n(CC(=O)Nc2ccc(Cl)cc2)nc1C | -2.9
98 | O=C1CC(c2ccc3c(c2)OCO3)c2cnn(C3CCCC3)c2N1 (stereo not drawn) | -15.7
99 | CN1CCCC2(CCN(Cc3cncn3C3CCCCC3)C2)C1=O (stereo not drawn) | -4.94
100 | CN1CCCCC1Cc1nc(Cc2cccc(F)c2)no1 (stereo not drawn) | -7.83
101 | Cc1ccccc1CC(=O)N1CCc2c(ncnc2N2CCOCC2)C1 | 13.5
102 | CCC(C)c1ccc(NC(=O)C2CCN(C(=O)COC)CC2)cc1 (stereo not drawn) | -6.71
103 | Cc1nc(N(C)CCN(C)C)c2cnn(C)c2n1 | 19.9
104 | COCc1nc2ncc3c(=O)n(-c4ccc(C(C)=O)cc4)ccc3n2n1 | -10.8
105 | Cc1cccc(C)c1OC1CN(Cc2cnn(C)c2)C1 | 0.587
106 | Cc1nn(C)c(C)c1-c1cc(-c2cc(CC(=O)O)cs2)nc(N)c1C#N | -7.79
107 | Cc1nonc1C1CCCN1Cc1ccc(C(=O)Nc2nccs2)cc1 (stereo not drawn) | 9.65
108 | O=C1CC(c2ccccc2F)c2c(n(C3CCCC3)[nH]c2=O)N1 (stereo not drawn) | -7.2
109 | CC(=O)N1CCCn2nc(CNS(=O)(=O)Cc3ccccc3)cc2C1 | -3.38
110 | COc1cccc(-c2cc(NCC(=O)O)nc3[nH]ccc23)n1 | 15.1
111 | CCCc1nc(C)cc(N2CCNC(C(=O)Nc3ccc(C)nc3)C2)n1 (stereo not drawn) | 19.3
112 | COc1ccnc(CN2CCC=C(C(C)NC(C)=O)C2)c1OC (stereo not drawn) | -3.19
113 | CC(C)(C)c1cc(CN2CCOC(CN)C2)n[nH]1 (stereo not drawn) | 2.01
